Source: ChEMBL document CHEMBL1781882, “Neuroprotective effects of furopyrazole derivative of benzylindazole analogs on C2 ceramide-induced apoptosis in cultured cortical neurons” (Bioorg Med Chem Lett, 2009)
Calls of active or inactive are those of the source. The calls are words filed in the database; no cut-off is given here.

How the values were obtained:
Cortical neurone [1] = assay: Neuroprotective activity in Sprague-Dawley rat cortical neurons assessed as reduction in C2 ceramide-induced cell death treated for 2 hrs followed by challenged with C2 ceramide for 24 hrs by MTT assay; format: functional
[2] = (§1) Neuroprotective activity in Sprague-Dawley rat cortical neurons assessed as reduction in C2 ceramide-induced cell death measured as cell survival at 1 uM for 2 hrs followed by challenged with C2 ceramide for 24 hrs by MTT assay; format: functional, Cortical neurone
Cortical neurone [3] = assay: Neuroprotective activity in Sprague-Dawley rat cortical neurons assessed as attenuation of C2 ceramide-induced apoptosis at 10 uM challenged with C2 ceramide for 24 hrs by Hoechst 33258 staining; format: functional
[4] = as §1, with “10” for “1”, “assay in presence of PD98059 ERK1/2 inhibitor (reference value: 100.2 +/- 1.7%)” for “assay”; format: functional, Cortical neurone
[5] = Neuroprotective activity in Sprague-Dawley rat cortical neurons assessed as reduction in C2 ceramide-induced cell death measured as cell survival at 5 uM for 2 hrs followed by challenged with C2 ceramide for 24 hrs by MTT assay; format: functional, Cortical neurone
[6] = Cytotoxicity against Sprague-Dawley rat cortical neurons at 10 uM for 24 hrs by MTT assay; conditions: cortical neurone
[7] = Neuroprotective activity in Sprague-Dawley rat cortical neurons assessed as reduction in C2 ceramide-induced cell death measured as cell survival at 10 uM for 2 hrs followed by challenged with C2 ceramide for 24 hrs by MTT assay; format: functional, Cortical neurone
[8] = Neuroprotective activity in Sprague-Dawley rat cortical neurons assessed as reduction in C2 ceramide-induced cell death measured as cell survival at 2.5 uM for 2 hrs followed by challenged with C2 ceramide for 24 hrs by MTT assay; format: functional, Cortical neurone
Cortical neurone [9] = assay: Neuroprotective activity in Sprague-Dawley rat cortical neurons assessed as reduction in C2 ceramide-induced cell death at 30 uM for 2 hrs followed by challenged with C2 ceramide for 24 hrs by MTT assay; format: functional
[10] = Neuroprotective activity in Sprague-Dawley rat cortical neurons assessed as reduction in C2 ceramide-induced cell death measured as cell survival at 10 uM for 2 hrs followed by challenged with C2 ceramide for 24 hrs by MTT assay in presence of U0126 ERK1/2 inhibitor (reference value: 100.2 +/- 1.7%); format: functional, Cortical neurone

For `Cc1cc2c(o1)c(-c1ccc(C(=O)O)cc1)nn2-c1ccccc1`, the Activity (Cortical neurone [1]) was “inactive”.
In the case of `Cc1cc2c(o1)c(-c1ccc(C(=O)O)cc1)nn2Cc1ccccc1`, the Activity (Cortical neurone [1]) is reported as “inactive”.
For `Cc1cc2c(o1)c(-c1ccc(CO)cc1)nn2-c1ccccc1`, the Activity [2] was 75.6%, the Activity (Cortical neurone [3]) was “Active” and the Activity [4] was 70.3%. For the same molecule, the Activity [5] was 90.1%, the Activity [6] was “Non-toxic” and the Activity [7] was 100.2%. For the same molecule, the Activity [8] was 81.5%, the Activity (Cortical neurone [9]) was “inactive” and the Activity (Cortical neurone [1]) was “Active”. It also gave an Activity [10] of 71.9%.
